The record followed here is patent publication US20150080462A1, “COMPOSITIONS AND METHODS FOR THE TREATMENT OR PREVENTION OF DISORDERS RELATING TO OXIDATIVE STRESS” (THE JOHNS HOPKINS UNIVERSITY, priority 2005, published 2015).

The test system of one data set is HO-1. The data set can be described thus: HO-1 protein expression in cortical neurons (Western blot). As to conditions: cortical neurons pretreated 1 h with CHX or ATD, then 100 μg/ml EGb 761. Background: In western blotting, separated proteins are transferred to a membrane and probed.
Data set [1] has as its system mouse cortical neuronal cells. Kind of data set: Glutamate-induced cytotoxicity in primary neurons (MTT). The class given is cell-based. As to conditions: SnPPIX 5 μM; CHX 10 μM. The protocol:
Mouse primary neurons cultured for 14 d were pre-treated for 6 h with EGb 761 (100 μg/ml). […] Neurons were incubated for an additional 18 h, and the MTT assay was used to estimate the cell survival. Experimental conditions were conducted in quadruplicate and repeated four times with different batches of primary cultures.
(§1) Neuronal survival was assessed and quantified with the MTT colorimetric assay. […] The optical density was determined at 570 nm. Cell viability of the vehicle-treated control group was defined as 100%, and MTT optical density in the treated groups was expressed as a percent of control.

Another data set relates to NF-κB. Format: cell-based, mouse. As to conditions: nrf2−/− MEFs pretreated 1 h with NAC (10 mM) or GSH-MEE (1 mM), then LPS (0.5 μg/ml) or TNF-α (10 ng/ml) 3 h.
The test system of data set [2] is OVA challenged Nrf2−/− mice. Kind of data set: BAL fluid inflammatory cell counts in OVA challenged mice pretreated with NAC.
Protocol: Mice (n=8) were anesthetized with 0.3 ml of pentobarbital (65 mg/ml) and the trachea was cannulated. […] BAL fluid was collected with 1 ml followed by 2×1 ml of sterile PBS containing 5 mM EDTA, DTT (5 mM) and PMSF (5 mM). The BAL fluid was immediately centrifuged at 1500×g. The total cell count was measured, and cytospin preparation (Shandon Scientific Inc., Cheshire, UK) was performed. Cells were stained with Diff-Quick reagent, and a differential count of 300 cells was performed using standard morphological criteria (Saltini C et al. Am Rev Respir Dis 130:650-658.1984).
Mice (male, 8 weeks old) were sensitized on day 0 by i.p. injection (100 μl/mouse) with 20 μg of ovalbumin complexed with aluminum potassium sulfate. On day 14, mice were sensitized a second time with 100 μg OVA. On days 24, 26 and 28, the mice were anesthetized by i.p. injection of 0.1 ml of a mixture of ketamine (10 mg/ml) and xylazine (1 mg/ml) diluted in sterile PBS and challenged with 200 μg of OVA (in 100 μl sterile PBS) by intratracheal instillation. The control groups received sterile PBS with aluminum potassium sulfate by i.p. route on day 0 and 14, and 0.1 ml of sterile PBS on day 24, 26 and 28. Mice were euthanized at different time points after OVA challenge for BAL, RNA isolation, histopathology, and for AHR measurements.
Nrf2^+/+ and Nrf2^−/− mice (6 mice in each group) were sensitized with OVA by following the procedure as already described. […] Twenty-four hours after challenge, BAL fluids and lung tissues were harvested and analyzed as above. The experiment was repeated two times.
The next data set has as its system nrf2−/− and nrf2+/+ mice. Kind of data set: LPS induced septic shock mortality, NAC pretreatment. As to conditions: LPS 1.5 mg per mouse. Format: in vivo.
Data set [3] relates to OVA challenged Nrf2−/− mice. Kind of data set: Lung histology (H&E) of OVA challenged mice pretreated with NAC. As to conditions: OVA challenged (1st challenge) Nrf2−/− mice, NAC 7 days before challenge.
Protocol: Mice (male, 8 weeks old) were sensitized on day 0 by i.p. injection (100 μl/mouse) with 20 μg of ovalbumin complexed with aluminum potassium sulfate. On day 14, mice were sensitized a second time with 100 μg OVA. On days 24, 26 and 28, the mice were anesthetized by i.p. injection of 0.1 ml of a mixture of ketamine (10 mg/ml) and xylazine (1 mg/ml) diluted in sterile PBS and challenged with 200 μg of OVA (in 100 μl sterile PBS) by intratracheal instillation. The control groups received sterile PBS with aluminum potassium sulfate by i.p. route on day 0 and 14, and 0.1 ml of sterile PBS on day 24, 26 and 28. […]
The lungs were inflated with 0.6 ml of buffered formalin (10%), fixed for 24 h at 4° C., prior to histochemical processing. […] The number of PAS positive cells was counted on longitudinal lung sections of the proximal airways. The percent PAS positive cells was determined by counting the mucus positive cells and unstained epithelial cells in the proximal airways under the microscope with a grid at 100× magnification. […] The data are expressed as mean±SEM.
Nrf2^+/+ and Nrf2^−/− mice (6 mice in each group) were sensitized with OVA by following the procedure as already described. […] Twenty-four hours after challenge, BAL fluids and lung tissues were harvested and analyzed as above. […]
The test system of data set [4] is primary cortical neurons. The data set can be described thus: Neuronal viability by MTT assay (t-BuOOH, NMDA, glutamate with or without t-BHQ). As to conditions: 24 hours.
In a further data set the test system is caspase-3. Kind of data set: Caspase-3/7 assay in cortical neurons. Format: cell-based, mouse. As to conditions: for caspase-3 activity: cortical neurons, t-BuOOH 60 μM, NMDA 100 μM, glutamate 300 μM.
In another data set the test system is Nrf2. As to conditions: cortical neurons; t-BuOOH 60 μM, NMDA 100 μM, glutamate 300 μM; up to 360 minutes.
In data set [5] the test system is mouse cortical neuronal cells. Kind of data set: H2O2-induced cytotoxicity in primary neurons (MTT). Format: cell-based. As to conditions: SnPPIX 5 μM. The protocol:
After 10 d in culture, mouse primary neurons were pre-treated with EGb 761 (10, 50, or 100 μg/ml) for 6 h, and then treated for 18 h with H2O2 (20 μM) or vehicle (control) with or without 5 μM HO inhibitor (SnPPIX, Porphyrin Products, Inc., (Logan, Utah). Cell survival was evaluated by the 3-(4,5-dimethylthiazol-2-yl)-2,5-diphenyl tetrazolium bromide (MTT) colorimetric assay.
as §1

Another data set has as its system HO-2. The data set can be described thus: HO-2 protein expression in cortical neurons (Western blot). As to conditions: 8 h.
Data set [6] relates to NADPH-cytochrome P450 reductase (CP450R). Kind of data set: NADPH-cytochrome P450 reductase protein expression in cortical neurons (Western blot). As to conditions: 8 h.
Data set [7] deals with primary cortical neurons.

Entries after “also recorded” stand apart in the source; their conditions may differ. *1 amine or outer side, *2 acyl side, *3 side chain or, on linkers, in order; H or OH if unused. Where a SMILES comes first, the peptide text is derived from it. Bridges are numbered along the chain shown (N, C = ends). Roman numbers before positions name the chains, in order. [ ]: non-standard residue; d: D form. Actinocin(9to1) = Cc1c2oc3c(C)ccc(C(=O)[*:1])c3nc-2c(C(=O)[*:2])c(N)c1=O; NMeV = CN[C@H](C(=O)O)C(C)C; Sar = CNCC(=O)O

Protocol for NF-κB: MEFs (60-80% confluence) were transfected with luciferase reporter genes (pNF-κB-luc or ISRE-Tk-Luc vector) by using Lipofectamine2000 (Invitrogen). The Renilla-luciferase reporter gene (pRL-TK) was co-transfected for normalization. After the treatments, the reporter gene activity was measured using the Dual Luciferase Assay System (Promega). All transfection experiments were carried out in triplicate wells and were repeated separately at least 3 times.

On to `Cc1c2oc3c(C)ccc(C(=O)N[C@@H]4C(=O)N[C@H](C(C)C)C(=O)N5CCC[C@H]5C(=O)N(C)CC(=O)N(C)[C@@H](C(C)C)C(=O)O[C@@H]4C)c3nc-2c(C(=O)N[C@@H]2C(=O)N[C@H](C(C)C)C(=O)N3CCC[C@H]3C(=O)N(C)CC(=O)N(C)[C@@H](C(C)C)C(=O)O[C@@H]2C)c(N)c1=O` [ATD, actinomycin D] (I: T[dV]P[Sar][NMeV] / II: T[dV]P[Sar][NMeV]; ester I:1-I:C, II:1-II:C; linker I:N-II:N via Actinocin(9to1)), for which the “HO-1 induction by EGb 761 in presence of inhibitor” value with HO-1 is “completely block”.

In the case of `C[C@@H]1C[C@@H]([C@H](O)CC2CC(=O)NC(=O)C2)C(=O)[C@@H](C)C1` [CHX, cycloheximide], the “HO-1 induction by EGb 761 in presence of inhibitor” value with HO-1 is “completely block”. Also, in data set [1], the “protective effect of EGb 761 against glutamate in presence of inhibitor” value is “prevented the protective effect”.

For `CCOC(=O)CNC(=O)[C@H](CS)NC(=O)CC[C@H](N)C(=O)O` [GSH-monoethyl ester], the “NF-κB mediated reporter activity elicited by LPS or TNF-α” value in the data set on NF-κB is on record as “significantly attenuated”.

As to `CC(=O)N[C@@H](CS)C(=O)O` [NAC, N-acetyl L-cysteine], the “other cell types (macrophages, neutrophils, lymphocytes, epithelial cells) in BAL fluid” value in [2] (24 h post 1st OVA challenge, NAC treatment) is reported as “did not have any significant inhibitory effect”. Moreover, the “inflammatory cells in the BAL fluid” value in [2] (Nrf2−/− OVA mice, NAC pretreatment 7 days before 1st OVA challenge) was “significantly (*) reduced”. Besides, the “total and differential cell counts in saline-challenged mice” value in data set [2] (saline-challenged mice treated with NAC vs untreated) is “did not differ”. Moreover, in the data set with nrf2−/− and nrf2+/+ mice (nrf2−/− and nrf2+/+ mice, NAC ip 500 mg/kg daily 4 days, 5 days), the “LPS induced mortality (% survival) vs vehicle-pretreated mice” value is recorded as “improved survival”. Further, the “mice surviving LPS induced septic shock” value with nrf2−/− and nrf2+/+ mice (nrf2−/− mice, NAC 500 mg/kg ip daily 4 days, saline-pretreated all died within 56 h) stood at 40%. Also, in the data set on nrf2−/− and nrf2+/+ mice (wild-type mice, NAC 500 mg/kg 4 days), the “protection against LPS induced septic shock” value was “modest protection”. Also, the “infiltration of inflammatory cells in the peribronchial and perivascular region” value in data set [3] is “marked reduction; also recorded: significant reduction”.

As to `CN[C@H](CC(=O)O)C(=O)O` [NMDA], the “number of viable neurons vs untreated control” value with primary cortical neurons [4] (t-BuOOH 60 μM, NMDA 100 μM, glutamate 300 μM) is recorded as “significantly decreased”. Moreover, the caspase-3 activity result in the data set on caspase-3 was “induced an increase”. In addition, in the data set with Nrf2, the “Nrf2 in the cytosolic fraction” value is “no effect” and the “Nrf2 in the nuclear fraction” value is recorded as “no effect”.

On to `C=Cc1c2[n-]c(c1C)/C=c1\[n-]/c(c(C)c1C=C)=C\c1[n-]c(c(CCC(=O)O)c1C)C=c1[n-]/c(c(C)c1CCC(=O)O)=C\2.[Sn+4]` [SnPPIX, Tin Protoporphyrin IX], for which the “protective effect of EGb 761 against glutamate in presence of inhibitor” value in data set [1] is recorded as “prevented the protective effect”. Also, the “protective effect of EGb 761 against H2O2 in presence of HO inhibitor” value in [5] is “blocked the protective effect”.

For the compound `CC(C)(C)[C@]1(O)CC2OC(=O)CC23C(=O)OC2OC(=O)[C@H](O)C231` (some centres unmarked) [bilobalide], the HO-2 expression level entry in the data set with HO-2 is “do not affect”. Further, the “NADPH-cytochrome P450 reductase (CP450R) protein expression” value in [6] is “do not affect”.

Turning to `N[C@@H](CCC(=O)O)C(=O)O` [glutamate], the caspase-3 activity entry in the data set with caspase-3 is “induced an increase”. In the data set with Nrf2, the “Nrf2 in the cytosolic fraction” value was “no effect” and the “Nrf2 in the nuclear fraction” value is listed as “no effect”.

As for `CC(C)(C)c1cc(O)ccc1O` [t-BHQ, tert-butylhydroquinone], the “decrease in viable neurons caused by t-BuOOH, NMDA or glutamate” value in the data set with primary cortical neurons [4] (t-BHQ 20 μM) is recorded as “abolished”. Besides, the “increase in caspase-3 activity evoked by t-BuOOH, NMDA and glutamate” value in the data set on caspase-3 (t-BHQ 20 μM) is recorded as “prevent the increase”. In addition, the “basal levels of caspase-3 activity” value in the data set with caspase-3 (t-BHQ alone) is on record as “no effect”. In the data set on primary cortical neurons [7], the “neuronal viability, compound alone” value is on record as “no effect”.

As for `CC(C)(C)OO` [t-BuOOH, test-butyl hydroperoxide], in the data set on caspase-3, the caspase-3 activity entry is reported as “induced an increase”. Also, in the data set on Nrf2, the “Nrf2 in the cytosolic fraction” value is reported as “decreased to below the basal level after 30 minutes” and the “Nrf2 in the nuclear fraction” value is given as “elevated at 30 min”.
